In experiment [1] the target is T1, tyrosinase (Agaricus bisporus, UniProt C7FF04). Kind of experiment: Tyrosinase inhibitory activity using L-DOPA as substrate. The conditions noted are these: read-out: Inhibition Rate at 64 μM (%). It counts as biochemical, mushroom. How it is done: Compounds c1~c29 were tested for their tyrosinase inhibitory activities according to previous reports. Each compound was dissolved in DMSO and diluted to different concentrations. Tyrosinase and L-DOPA were dissolved in PBS solution (50 mM, pH 6.8). To 140 μL of tyrosinase (final concentration: 66.7 U/mL) solution, 10 μL of compound was added and incubated for 5 min at 25 °C, followed by the addition of 50 µL of L-DOPA (final concentration: 2 mM). Then, absorbance of the mixture was read at 475 nm. The inhibitory activity of each compound was calculated using DMSO as a blank control.
Target sequence in this assay (C7FF04 2-392): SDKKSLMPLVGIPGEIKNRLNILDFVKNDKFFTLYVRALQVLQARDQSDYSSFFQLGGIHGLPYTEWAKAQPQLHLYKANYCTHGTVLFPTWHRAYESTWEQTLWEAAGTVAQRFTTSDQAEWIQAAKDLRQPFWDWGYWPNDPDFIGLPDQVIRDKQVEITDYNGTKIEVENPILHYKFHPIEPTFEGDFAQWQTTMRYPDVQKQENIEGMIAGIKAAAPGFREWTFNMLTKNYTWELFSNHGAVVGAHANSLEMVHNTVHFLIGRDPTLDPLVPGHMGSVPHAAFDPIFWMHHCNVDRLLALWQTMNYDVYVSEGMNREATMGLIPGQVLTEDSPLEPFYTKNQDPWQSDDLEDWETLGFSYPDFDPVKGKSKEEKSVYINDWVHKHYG

Experiment [2] concerns the target T1, tyrosinase. Kind of experiment: Fluorescence quenching of tyrosinase (Stern–Volmer). It counts as binding, mushroom. On the set-up: purchased Sigma-Aldrich. As to the method: An amount of 1 μL of compound c27 solution was titrated into 2 mL of tyrosinase and incubated for 5 min. […] The quenching mechanism and parameters were investigated by the Stern–Volmer equation.
Target sequence in this assay (C7FF04 1-392 limits assumed): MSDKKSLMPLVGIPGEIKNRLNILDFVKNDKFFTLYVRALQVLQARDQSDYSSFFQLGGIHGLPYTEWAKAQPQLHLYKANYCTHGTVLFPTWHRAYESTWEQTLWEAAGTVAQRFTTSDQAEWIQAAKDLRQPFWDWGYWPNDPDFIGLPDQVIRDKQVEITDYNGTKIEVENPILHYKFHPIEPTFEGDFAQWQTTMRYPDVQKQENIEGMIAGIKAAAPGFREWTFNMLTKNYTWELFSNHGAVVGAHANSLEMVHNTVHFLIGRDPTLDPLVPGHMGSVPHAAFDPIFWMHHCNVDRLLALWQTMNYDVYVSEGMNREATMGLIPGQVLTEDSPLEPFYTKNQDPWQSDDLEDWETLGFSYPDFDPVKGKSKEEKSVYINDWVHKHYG

Experiment [3] deals with T1, tyrosinase. Kind of experiment: Inhibition kinetic study (enzyme and substrate kinetics, Lineweaver–Burk). It counts as biochemical, mushroom. The conditions noted are these: c27 0~4 μM. How it is done:
The kinetics studies were carried out using the same experimental method as described above. For enzyme kinetics, the absorbance of the mixture containing different concentrations of tyrosinase (final concentration: 66.7 U/mL) and compound c27 (0, 2, 3, and 4 μM) was recorded at 475 nm, respectively. For substrate kinetics, the absorbance of the mixture containing different concentrations of L-DOPA (final concentration: 2, 4, 6 and 8 mM) and compound c27 (0, 2, 3 and 4 μM) was recorded at 475 nm, respectively.
Target sequence in this assay (C7FF04 2-392): as the sequence (C7FF04 2-392) above

Experiment [4] concerns the target T1, tyrosinase. Kind of experiment: Three-dimensional fluorescence spectra of tyrosinase–compound mixture. On the set-up: species or system mushroom. To be noted: 3D fluorescence. How it is done: The 3D fluorescence spectra of tyrosinase-compound c27 mixture was measured according to previous reports. To 3 mL of tyrosinase solution (final concentration: 168 μM) in PBS, 10 µL of compound c27 (2 mM) was added and incubated for 5 min. Then, the 3D fluorescence spectra analyses were conducted in room temperature. The excitation and emission wavelengths were 200–600 nm and the slit width was 2.5 nm.
Target sequence in this assay (C7FF04 2-392): as above

The target of experiment [5] is T1, tyrosinase. As to the kind of experiment: Circular dichroism spectra, secondary structure contents of tyrosinase. The arrangement: purchased Sigma-Aldrich; species or system mushroom. As to the method: The CD spectra of tyrosinase-compound c27 mixture were measured according to previous reports. To 190 µL of tyrosinase solution (final concentration: 64.65 μM) in PBS, 10 µL of compound c27 (1.28, 2.56, and 3.84 mM) was added and incubated for 5 min. Then, the CD spectra were measured at 195~250 nm at room temperature.
Target sequence in this assay (C7FF04 1-392): as the sequence (C7FF04 1-392 limits assumed) above

Setting [6] is: compound concentration 64 μM, L-DOPA substrate.

Read-outs that look alike come from different tables or passages of the source.

Turning to `C=CCc1ccc(OC(=O)/C=C/c2ccc(OC)cc2)c(OC)c1` [c21, 4-allyl-2-methoxyphenyl (E)-3-(4-methoxyphenyl)acrylate], the inhibition (usually how much of the control response was suppressed) at 64 µM in experiment [1] (setting [6]) came to 7 ± 0.9%.

Consider `C=CCc1ccc(OC(=O)/C=C/c2ccccc2C(F)(F)F)c(OC)c1` [c22, 4-allyl-2-methoxyphenyl (E)-3-(2-(trifluoromethyl)phenyl)acrylate], for which the inhibition at 64 µM in experiment [1] (setting [6]) came out at 6 ± 0.5%.

For `C=CCc1ccc(OC(=O)/C=C/c2cccc(F)c2)c(OC)c1` [c9, 4-allyl-2-methoxyphenyl (E)-3-(3-fluorophenyl)acrylate], in experiment [1] (setting [6]), the inhibition at 64 µM came out at 17 ± 3%.

In the case of `C=CCc1ccc(OC(=O)/C=C/c2ccc(C)cc2)c(OC)c1` [c4, 4-allyl-2-methoxyphenyl (E)-3-(p-tolyl)acrylate], the inhibition at 64 µM in experiment [1] (setting [6]) was 15 ± 1%.

Regarding `C=CCc1ccc(OC(=O)/C=C/c2cccc(OC)c2)c(OC)c1` [c20, 4-allyl-2-methoxyphenyl (E)-3-(3-methoxyphenyl)acrylate], the inhibition at 64 µM in experiment [1] (setting [6]) is 3 ± 0.1%.

On to `C=CCc1ccc(OC(=O)/C=C/c2cccc(O)c2)c(OC)c1` [c14, 4-allyl-2-methoxyphenyl (E)-3-(3-hydroxyphenyl)acrylate], for which the inhibition at 64 µM in experiment [1] (setting [6]) came out at 67.6%.

For `C=CCc1ccc(OC(=O)/C=C/c2ccc(F)cc2)c(OC)c1` [c10, 4-allyl-2-methoxyphenyl (E)-3-(4-fluorophenyl)acrylate], the inhibition at 64 µM in experiment [1] (setting [6]) was 17 ± 1%.

In the case of `C=CCc1ccc(OC(=O)/C=C/c2ccccc2F)c(OC)c1` [c8, 4-allyl-2-methoxyphenyl (E)-3-(2-fluorophenyl)acrylate], in experiment [1] (setting [6]), the inhibition at 64 µM was 17 ± 3%.

On to `C=CCc1ccc(OC(=O)/C=C/c2cccc(Cl)c2)c(OC)c1` [c6, 4-allyl-2-methoxyphenyl (E)-3-(3-chlorophenyl)acrylate], for which, in experiment [1] (setting [6]), the inhibition at 64 µM is 17 ± 2%.

Regarding `C=CCc1ccc(OC(=O)/C=C/c2ccc(O)c(OC)c2)c(OC)c1` [c26, 4-allyl-2-methoxyphenyl (E)-3-(4-hydroxy-3-methoxyphenyl)acrylate], the inhibition at 64 µM in experiment [1] (setting [6]) was found to be 47 ± 1%.

Consider `C=CCc1ccc(OC(=O)/C=C/c2ccccc2OC)c(OC)c1` [c19, 4-allyl-2-methoxyphenyl (E)-3-(2-methoxyphenyl)acrylate], for which, in experiment [1] (setting [6]), the inhibition at 64 µM was 3 ± 0.2%.

For `C=CCc1ccc(OC(=O)/C=C/c2cccc(C)c2)c(OC)c1` [c3, 4-allyl-2-methoxyphenyl (E)-3-(m-tolyl)acrylate], the inhibition at 64 µM in experiment [1] (setting [6]) was 39 ± 3%.

On to `C=CCc1ccc(OC(=O)/C=C/c2cccc(Br)c2)c(OC)c1` [c12, 4-allyl-2-methoxyphenyl (E)-3-(3-bromophenyl)acrylate], for which the inhibition at 64 µM in experiment [1] (setting [6]) amounted to 3 ± 0.8%.

Consider `C=CCc1ccc(OC(=O)/C=C/c2ccccc2[N+](=O)[O-])c(OC)c1` [c16, 4-allyl-2-methoxyphenyl (E)-3-(2-nitrophenyl)acrylate], for which the inhibition at 64 µM in experiment [1] (setting [6]) stood at 5 ± 0.1%.

As to `C=CCc1ccc(OC(=O)/C=C/c2ccccc2Br)c(OC)c1` [c11, 4-allyl-2-methoxyphenyl (E)-3-(2-bromophenyl)acrylate], the inhibition at 64 µM in experiment [1] (setting [6]) is 10 ± 0.4%.

As to `C=CCc1ccc(OC(=O)/C=C/c2ccc(O)c(O)c2)c(OC)c1` [c27, 4-allyl-2-methoxyphenyl (E)-3-(3,4-dihydroxyphenyl)acrylate], in experiment [2], the “number of binding sites (in words)” value is “one” and the quenching mechanism result was “static”. Further, in experiment [2] (304 K), the “KSV (Stern–Volmer quenching constant)” value worked out at 47700 L/mol, the “Kq (quenching rate constant)” value worked out at 4.77e+12 L/mol and the “n (number of binding sites)” value is 0.59. Further, in experiment [2] (307 K), the “KSV (Stern–Volmer quenching constant)” value stood at 43200 L/mol, the “Kq (quenching rate constant)” value was 4.32e+12 L/mol and the “n (number of binding sites)” value is on record as 0.86. Also, in experiment [2] (310 K), the “KSV (Stern–Volmer quenching constant)” value came out at 42900 L/mol, the “Kq (quenching rate constant)” value is 4.29e+12 L/mol and the “n (number of binding sites)” value is reported as 0.99. In addition, the inhibition type result in experiment [3] (Lineweaver–Burk plots) was “mixed-type”. The reversibility of inhibition result in experiment [3] (ν versus [E] plots) was “reversible”. For the same compound, the “reduction of intensity of peak 1 (λex/λem = 280 nm/340 nm)” value in experiment [4] (Tyr and Trp residues) is reported as 21.47%. In addition, the “reduction of intensity of peak 2 (λex/λem = 230 nm/335 nm)” value in experiment [4] (polypeptide strand transition) amounted to 32.71%. In experiment [5] ([Tyrosinase]:[c27] 1:1), the “Random Coil (%)” value is 28.23%, the “α-Helix (%)” value is on record as 7.12%, the “β-Sheet (%)” value worked out at 49.00% and the “β-Turn (%)” value is 17.63%. In experiment [5] ([Tyrosinase]:[c27] 1:2), the “Random Coil (%)” value is recorded as 28.12%, the “α-Helix (%)” value is listed as 9.56%, the “β-Sheet (%)” value is 49.23% and the “β-Turn (%)” value is 18.37%. In experiment [5] ([Tyrosinase]:[c27] 1:3), the “Random Coil (%)” value is 27.94%, the “α-Helix (%)” value was determined as 9.85%, the “β-Sheet (%)” value is 49.27% and the “β-Turn (%)” value amounted to 18.55%. Further, the inhibition at 64 µM in experiment [1] (setting [6]) was 81.5%.

With `C=CCc1ccc(OC(=O)/C=C/c2ccc(Br)cc2)c(OC)c1` [c13, 4-allyl-2-methoxyphenyl (E)-3-(4-bromophenyl)acrylate], in experiment [1] (setting [6]), the inhibition at 64 µM is 13 ± 1%.

As to `C=CCc1ccc(OC(=O)/C=C/c2cccc(C(F)(F)F)c2)c(OC)c1` [c23, 4-allyl-2-methoxyphenyl (E)-3-(3-(trifluoromethyl)phenyl)acrylate], the inhibition at 64 µM in experiment [1] (setting [6]) was found to be 5 ± 0.2%.

Regarding `C=CCc1ccc(OC(=O)/C=C/c2ccc(Cl)c(F)c2)c(OC)c1` [c28, 4-allyl-2-methoxyphenyl (E)-3-(4-chloro-3-fluorophenyl)acrylate], the inhibition at 64 µM in experiment [1] (setting [6]) turned out to be 19 ± 0.2%.

Regarding `C=CCc1ccc(OC(=O)/C=C/c2ccc(C(F)(F)F)cc2)c(OC)c1` [c24, 4-allyl-2-methoxyphenyl (E)-3-(4-(trifluoromethyl)phenyl)acrylate], the inhibition at 64 µM in experiment [1] (setting [6]) was determined as 2 ± 0.1%.

For the compound `C=CCc1ccc(OC(=O)/C=C/c2ccc3c(c2)OCO3)c(OC)c1` [c29, 4-allyl-2-methoxyphenyl (E)-3-(benzo[d][1,3]dioxol-5-yl)acrylate], the inhibition at 64 µM in experiment [1] (setting [6]) worked out at 4 ± 1%.

On to `C=CCc1ccc(OC(=O)/C=C/c2ccccc2C)c(OC)c1` [c2, 4-allyl-2-methoxyphenyl (E)-3-(o-tolyl)acrylate], for which the inhibition at 64 µM in experiment [1] (setting [6]) worked out at 12 ± 0.3%.

As for `C=CCc1ccc(OC(=O)/C=C/c2ccc([N+](=O)[O-])cc2)c(OC)c1` [c18, 4-allyl-2-methoxyphenyl (E)-3-(4-nitrophenyl)acrylate], the inhibition at 64 µM in experiment [1] (setting [6]) worked out at 14 ± 1%.

For `C=CCc1ccc(OC(=O)/C=C/c2cccc([N+](=O)[O-])c2)c(OC)c1` [c17, 4-allyl-2-methoxyphenyl (E)-3-(3-nitrophenyl)acrylate], the inhibition at 64 µM in experiment [1] (setting [6]) turned out to be 9 ± 0.8%.

Consider `C=CCc1ccc(OC(=O)/C=C/c2ccc(N(C)C)cc2)c(OC)c1` [c25, 4-allyl-2-methoxyphenyl (E)-3-(4-(dimethylamino)phenyl)acrylate], for which the inhibition at 64 µM in experiment [1] (setting [6]) worked out at 26 ± 1%.

For `C=CCc1ccc(OC(=O)C=Cc2ccccc2)c(OC)c1` [c1, 4-allyl-2-methoxyphenyl cinnamate], the inhibition at 64 µM in experiment [1] (setting [6]) was found to be 12 ± 1%.

As for `C=CCc1ccc(OC(=O)/C=C/c2ccccc2Cl)c(OC)c1` [c5, 4-allyl-2-methoxyphenyl (E)-3-(2-chlorophenyl)acrylate], the inhibition at 64 µM in experiment [1] (setting [6]) was 29 ± 3%.

Turning to `C=CCc1ccc(OC(=O)/C=C/c2ccc(O)cc2)c(OC)c1` [c15, 4-allyl-2-methoxyphenyl (E)-3-(4-hydroxyphenyl)acrylate], the inhibition at 64 µM in experiment [1] (setting [6]) was determined as 76.1%.

`C=CCc1ccc(OC(=O)/C=C/c2ccc(Cl)cc2)c(OC)c1` [c7, 4-allyl-2-methoxyphenyl (E)-3-(4-chlorophenyl)acrylate]: the inhibition at 64 µM in experiment [1] was 24 ± 1%.

(Values after PMC10460039 (Molecules, 2023).)
